# In US10124007B2, “Combination of PI3K-inhibitors” (BAYER PHARMA AKTIENGESELLSCHAFT, priority 2013, dated 2018):
# Where “and” joins values, the source holds several entries; their conditions need not be identical. Equal values may be shown once.
# Legend:
# MCF-7 [1] = assay: WST-1 based proliferation assay, MCF-7; type: cell-based, human; conditions: WST-1, days 1-5
# Procedure: (§1) The effects of PI3K inhibitor Compound A1 and radium 223 in MCF-7 and 4T1 breast cancer cells and PC-3 and LNCaP prostate cancer cells were investigated in vitro as single agent and in combination. The effects were studied by measuring cell proliferation and apoptosis. Radium 223 and the reference inhibitor doxorubicin were added at day 0. The PI3K inhibitor(s) was added at day −1 (24 hours before addition of Alpharadin) and at day 4. The following two concentrations of the inhibitors and two concentrations of radium 223 in 4 replicates were tested:
# (§2) The effects on cell proliferation were studied using a WST-1 based proliferation assay and the effects on apoptosis were studied in parallel plates by measuring caspase 3/7 activity. The measurements were performed at 4 different time points, days 1, 2, 3 and 5. Caspase activity was normalized to the cell number obtained with the WST-1 assay in parallel plates.
# [2] = test system: 4T1-GFP-fluorescent mouse breast cancer cells; assay: 4T1-GFP syngeneic breast cancer bone metastasis model in mice; type: in vivo, Balb/c mice; conditions: for Survival Days after Treatment, Average: average of 10 survival animals; for Survival Days after Treatment, Average / Survival Days after Treatment: radium 223 300 kBq/kg iv once, Compound A1 75 mg/kg po QD; for Survival Days after Treatment: individual survival animals 1-10; for Adrenal glands with metastasis / Ovaries with metastasis / Kidneys with metastasis: non-survival animals sacrificed at day 12 or 13; for Kidneys with metastasis: macroscopic findings and fluorescence imaging
# Procedure: The monotherapy and the combination of compound A1 and radium 223 were tested in a syngeneic animal model that resembles the characteristics of breast cancer bone metastatic disease in humans. This model can be effectively used for testing the effects of cancer drug candidates on the metastasis of breast cancer cells to bone.
# To this extend, 4T1-GFP-fluorescent mouse breast cancer cells were inoculated into the left cardiac ventricle of 4-5 weeks old female Balb/c mice. Within one-two weeks after the inoculation, the animals developed osteolytic bone metastases that can be visualized by GFP-fluorescence and X-ray radiography.
# On day 7 post tumor cell inoculation, animals were randomized according to radiography and presence of tumor metastases. On day 7, animals were dosed with a single dose of radium 223 or vehicle, daily dose of PI3K inhibitor or a combination treatment with single dose of radium 223 and daily continuous dosing of PI3K inhibitor. Half of the animals (n=10) from each treatment group were sacrificed on day 13 after inoculation, or earlier when they were moribund, half of the animals (N=10) were sacrificed when they became moribund. The osteolytic lesions and whole body tumor burden were measured by x-ray and fluorescence imaging at sacrifice. Furthermore, tissue samples from the left and right tibia and femur were collected for further histomorphometric analysis. Tissue was embedded in paraffin for histomorphometric analysis of bone and tumor area.
# Groups: Control group (vehicle) received Alpharadin vehicle (sodium citrate buffer), iv once and PEG/Wfi 60:40 pH 4.0, po QD; radium 223 group was given at 300 kBq/kg of radium 223, iv once and PEG/Wfi 60:40 pH 4.0, po QD; PI3K group was given 75 mg/kg of Compound A1, po QD and radium 223 vehicle, iv once; the combination group was given 300 kBq/kg of radium 223, iv once and 75 mg/kg of Compound A1, po QD;
# PC-3 = assay: WST-1 based proliferation assay, PC-3; type: cell-based, human; conditions: WST-1, days 1-5
# Procedure: as §1, §2
# LNCaP = assay: WST-1 based proliferation assay, LNCaP; type: cell-based, human; conditions: for LNCaP cell proliferation (effect in words): WST-1, days 1-5
# Procedure: as §1, §2
# MCF-7 [3] = assay: Caspase 3/7 apoptosis assay, MCF-7; type: cell-based, human; conditions: caspase 3/7 normalized to WST-1, day 2
# Procedure: as §1, §2
# 4T1 = assay: WST-1 based proliferation assay, 4T1; type: cell-based, mouse; conditions: for 4T1 cell proliferation at lower dose (effect in words): lower (250 nM) dose
# Procedure: as §1, §2
# [4] = test system: LNCaP prostate cancer cells in bone; assay: Orthotopic LNCaP CRPC bone model in mice; type: in vivo; conditions: for Tumor growth (effect in words): LNCaP CRPC model; for Number of osteoclasts at tumor-bone interface (effect in words): TRAP staining; for Inhibition of progression of osteoblastic lesions / Growth/progression of osteoblastic lesions (effect in words): x-ray radiography; for Growth/progression of osteoblastic lesions (effect in words): lesion area
# Source text: The monotherapy and the combination of compound A1 and radium 223 were further tested in an orthotopic model of LNCaP, a CRPC cell line in mice. The LNCaP cells are known to form osteoblastic and mixed lesions when inoculated to bone marrow cavity. We used this model for testing the effects of compound A1 and radium-223 as single agent and in combination on the growth of LNCaP prostate cancer cells in bone. The osteoblastic bone metastases was visualized by X-ray radiography about six weeks post tumor cell inoculation. Mice with established bone metastases were randomized and treated for 45 days. The following four experimental groups with 13-14 mice in each were included in the study:
# 1) Vehicle control (Compd A1 vehicle QD po)
# 2) Ra-223 300 kBq/kg (dosed twice at 4-week intervals)+vehicle QD po
# 3) Compd A1 75 mg/kg (po QD)
# Body weights were determined twice a week. Blood samples were taken and the animals radiographed biweekly. The animals were sacrificed 45 days after dosing, or earlier if they were moribund. Terminal blood samples were taken. Tissue samples were collected and processed for gamma-counter measurements, microCT measurements and histomorphometry.
# [5] = single dose 250 kBq per kg body weight; cited from earlier work
# [6] = test system: patients with bone metastases; conditions: cited from earlier work
# [7] = test system: patients with CRPC (Castration Resistant Prostate Cancer) and bone metastases; conditions: cited from earlier work
# [8] = fluorescence imaging at sacrifice
Structure (SMILES),MCF-7 cell proliferation (effect in words) (MCF-7 [1]),"Survival Days after Treatment, Average [2]","Whole body tumor burden (effect in words) [2, 8]",Survival Days after Treatment [2],Adrenal glands with metastasis [2],Ovaries with metastasis [2],Kidneys with metastasis [2],PC3 cell proliferation (effect in words) (PC-3),LNCaP cell proliferation (effect in words) (LNCaP),MCF-7 apoptosis induction / tumor cell death (effect in words) (MCF-7 [3]),4T1 cell proliferation at lower dose (effect in words) (4T1),Tumor growth (effect in words) [4],Number of osteoclasts at tumor-bone interface (effect in words) [4],Inhibition of progression of osteoblastic lesions [4],Growth/progression of osteoblastic lesions (effect in words) [4],other results
"COc1c(OC[C@H](O)CN2CCOCC2)ccc2c1N=C(NC(=O)c1cccnc1C)N1CCN=C21 [Compound A1, N-(8-{[(2R)-2-hydroxy-3-(morpholin-4-yl)propyl]oxy}-7-methoxy-2,3-dihydroimidazo[1,2-c]quinazolin-5-yl)-2-methylpyridine-3-carboxamide]",potent anti-proliferative activity,6.6 days,significantly decreased,6 days (5×) and 4 days and 8 days (4×),61%,56%,17%,better anti-proliferactive activity,strong anti-proliferative effects,only at high dose can induce apoptosis,only moderate inhibition,potently inhibited,decreased,50%,significantly inhibited,"Whole body tumor burden reduction ([2]; fluorescence imaging at sacrifice, day 13 after inoculation, 6 days of treatment): 67%; Whole body tumor burden (effect in words) ([2]; fluorescence imaging at sacrifice, listed as compound A1): decreased; Reduction of kidney metastases ([2]; frequency of soft tissue metastases): 73%; Relative tumor area in bone marrow area (effect in words) ([2]; histomorphometry, ANOVA p=0.099477): Trends of inhibition; Reduction in total osteolytic area ([2]; radiography at sacrifice): 53.2%; Total osteolytic area / tumor-induced osteolysis (effect in words) ([2]; radiography at sacrifice): strongly inhibited"
COc1cccc2c1C(=O)c1c(O)c3c(c(O)c1C2=O)C[C@@](O)(C(=O)CO)C[C@@H]3O[C@H]1C[C@H](N)[C@H](O)[C@H](C)O1 [doxorubicin],inhibited proliferation,,,,,,,inhibited proliferation,inhibited proliferation,,,,,,,"4T1 cell proliferation (effect in words) (4T1; WST-1, days 1-5): inhibited proliferation"
"[Cl][223Ra][Cl] [radium 223, radium-223 dichloride]",only slight inhibition,6.8 days,not statistically significant,8 days (4×) and 6 days (6×),94%,94%,22%,moderate inhibition,,could not induce tumor cell death,only moderate inhibition,potently inhibited,eradicated,56%,significantly inhibited,"Observed adverse reactions [5]: diarrhea and reversible myelosuppression; LNCaP cell proliferation at high dose (effect in words) (LNCaP; high dose (1600 Bq/mL)): effective; Disease-related biomarkers (bone ALP, PSA) ([6]; Phase 2 studies): improves disease-related biomarkers; Pain ([6]; Phase 2 studies): reduces pain; Safety profile ([6]; phase 1 and 2 studies): favorable safety profile, with minimal myelotoxicity; 4T1 cell proliferation at higher dose (effect in words) (4T1; higher dose): strong anti-proliferative effects; Number of osteoclasts at tumor-bone interface (effect in words) ([4]; listed as Ra-223): decreased; Median survival longer than placebo ([7]; in vivo): 2.8 months; Time to first skeletal-related event ([7]; in vivo): significantly prolonged; Reduction in risk of death compared with placebo ([7]; overall survival): 30.5%"
